From publication PMC6502651 (ChemMedChem, 2019)

How the values were obtained:
Assay type in all cases: cell-based
[1] = system: 3D7 line of P. falciparum; experiment: P. falciparum asexual intraerythrocytic growth inhibition; conditions: for IC50: Plasmodium falciparum, 3D7, read-out: IC50 (Pf3D7); for Selectivity index (SI) = (mammalian cell IC50)/(P. falciparum IC50): HepG2 vs Pf3D7
[2] = system: P. berghei exo-erythrocytic forms; experiment: P. berghei-Luc liver stage assay; conditions: for Selectivity index (SI) = (mammalian cell IC50)/(Pb EEF IC50): HepG2 vs Pb EEF; for IC50: Plasmodium berghei, 48 h, read-out: Pb EEF IC50
[3] = system: HepG2 cells; experiment: HepG2 cytotoxicity bioluminescence assay; conditions: Homo sapiens, HepG2, 48 h, read-out: IC50 (HepG2)

Row | SMILES | IC50 [1] | Selectivity index (SI) = (mammalian cell IC50)/(Pb EEF IC50) [2] | IC50 [2] | Selectivity index (SI) = (mammalian cell IC50)/(P. falciparum IC50) [1] | IC50 [3]
1 | CC(C)c1ccc(C(=O)N(CC(=O)NC2CCCCC2)c2ccc(C(=O)NO)cc2)cc1 [Compound 2a, N-(2-(cyclohexylamino)-2-oxoethyl)-N-(4-(hydroxycarbamoyl)phenyl)-4-isopropylbenzamid] | 570 to 77700 nM | 4 | 9700 nM |  | 
2 | Cc1cc(C)cc(C(=O)N(CC(=O)NCc2ccccc2)Cc2ccc(C(=O)NO)cc2)c1 [Compound 2j, N-(2-(Benzylamino)-2-oxoethyl)-N-(4-(hydroxycarbamoyl)benzyl)-3,5-dimethylbenzamide] | 37 nM | 131 | 73 nM | 259 | 9570 nM
3 | CCN(CC)CCCC(C)Nc1ccnc2cc(Cl)ccc12 (stereo not drawn) [chloroquine, reference compound] | 6.8 nM |  |  |  | 
4 | Cc1cc(C)cc(C(=O)N(CC(=O)NC2CCCCC2)c2ccc(C(=O)NO)cc2)c1 [Compound 2b, N-(2-(cyclohexylamino)-2-oxoethyl)-N-(4-(hydroxycarbamoyl)phenyl)-3,5-dimethylbenzamide] | 570 to 77700 nM | 2 | 20200 nM |  | 
5 | Cc1cc(C)cc(C(=O)N(CC(=O)NCc2ccc(C(C)(C)C)cc2)Cc2ccc(C(=O)NO)cc2)c1 [Compound 2o, N-(2-((4-(tert-Butyl)benzyl)amino)-2-oxoethyl)-N-(4-(hydroxycarbamoyl)benzyl)-3,5-dimethylbenzamide] |  | 2 | 16600 nM |  | 
6 | Cc1cccc(CNC(=O)CN(Cc2ccc(C(=O)NO)cc2)C(=O)c2cc(C)cc(C)c2)c1 [Compound 2q, N-(4-(Hydroxycarbamoyl)benzyl)-3,5-dimethyl-N-(2-((3-methylbenzyl)amino)-2-oxoethyl)benzamide] |  | 157 | 130 nM |  | 
7 | Cc1ccc(CNC(=O)CN(Cc2ccc(C(=O)NO)cc2)C(=O)c2cc(C)cc(C)c2)cc1 [Compound 2k, N-(4-(Hydroxycarbamoyl)benzyl)-3,5-dimethyl-N-(2-((4-methylbenzyl)amino)-2-oxoethyl)benzamide] |  | 70 | 210 nM |  | 
8 | Cc1cc(C)cc(C(=O)N(CC(=O)NCc2ccc(Cl)cc2)Cc2ccc(C(=O)NO)cc2)c1 [Compound 2n, N-(2-((4-Chlorobenzyl)amino)-2-oxoethyl)-N-(4-(hydroxycarbamoyl)benzyl)-3,5-dimethylbenzamide] |  | 21 | 1000 nM |  | 
9 | Cc1cc(C)cc(C(=O)N(CC(=O)NCc2ccc(F)cc2)Cc2ccc(C(=O)NO)cc2)c1 [Compound 2m, N-(2-((4-Fluorobenzyl)amino)-2-oxoethyl)-N-(4-(hydroxycarbamoyl)benzyl)-3,5-dimethylbenzamide] |  | 185 | 110 nM |  | 
10 | Cc1cc(C)cc(C(=O)N(CC(=O)NCc2cccnc2)Cc2ccc(C(=O)NO)cc2)c1 [Compound 2r, N-(4-(Hydroxycarbamoyl)benzyl)-3,5-dimethyl-N-(2-oxo-2-((pyridin-3-ylmethyl)amino)ethyl)benzamide] | 79 nM | 3 | 16700 nM | 530 | 41900 nM
